Values joined by “and” are separate entries in the source; they are usually repeats but may differ in a detail not shown here. Equal values may be shown once. Read-outs that look alike come from different tables or passages of the source.
Columns and labels:
[1] = test system: vesicular stomatitis virus; test: microbe, parasite or virus in culture
yellow fever virus [2] = test: microbe, parasite or virus in culture
kunjin virus [3] = test: microbe, parasite or virus in culture; type: cell-based; conditions: West Nile virus
yellow fever virus [4] = type: cell-based
dengue virus [5] = test: microbe, parasite or virus in culture; type: cell-based; conditions: Vero
yellow fever virus [6] = test: in vitro
VSV = type: cell-based, vesicular stomatitis virus
[7] = test system: vesicular stomatitis virus; test: in vitro; conditions: human
dengue virus [8] = type: cell-based
kunjin virus [9] = type: cell-based
[10] = test system: respiratory syncytial virus; test: microbe, parasite or virus in culture; type: cell-based; conditions: human respiratory syncytial virus, Vero, read-out: ED50 RSV VERO
hepatitis C = conditions: patients with chronic hepatitis C; in combination with interferon; cited from earlier work

Work on `O=C1C(O)=C(CC=C(Cl)Cl)C(=O)c2ccccc21` [Dichloroallyl lawsone, dichloroallyl lawsone] yielded an EC50 ([1]; Huh-7, read-out: ED50) of 490 nM, an EC50 (yellow fever virus [2]; Huh-7, read-out: ED50) of 1100 nM and an EC50 (yellow fever virus [2]; Vero, read-out: ED50) of 900 nM. For the same compound, the EC50 (kunjin virus [3]; Huh-7, read-out: ED50) was 780 nM.

Compound `O=C(O)c1cc(-c2ccc(-c3ccccc3)cc2)nc2ccc(OC(F)(F)F)cc12` [I2K5, 2-(4-biphenylyl)-6-trifluoromethoxy-quinoline-4-carboxylic acid] has an EC50 (yellow fever virus [2]; Huh-7, read-out: ED50 YFV HuH7) of 1700 nM, an EC50 (yellow fever virus [2]; Vero, read-out: ED50 YFV VERO) of 800 nM and an EC50 (kunjin virus [3]; Huh-7, read-out: ED50 KUN HuH7) of 2000 nM. The Fold enhancement (yellow fever virus [4]) was 3 fold and the EC50 (dengue virus [5]; read-out: ED50 DEN VERO) was 800 nM.

Work on `Cc1c(-c2ccc(-c3ccccc3F)cc2)nc2ccc(F)cc2c1C(=O)[O-].[Na+]` [Brequinar, 6-fluoro-2-(2′-fluoro-1,1′-biphenyl-4-yl)-3-methyl-4′-quinolinecarboxylic acid sodium salt] yielded a selectivity ratio (yellow fever virus [6]; human) of 60, a selectivity ratio (yellow fever virus [6]; monkey) of 2670 and an EC50 ([1]; Huh-7, read-out: ED50) of 14 nM. The EC50 ([1]; Huh-7, read-out: ED50 VSV HuH7) was 80 nM, the EC50 (yellow fever virus [2]; Huh-7, read-out: ED50) was 50 nM and the EC50 (yellow fever virus [2]; Huh-7, read-out: ED50 YFV HuH7) was 30 nM. It also gave an EC50 (yellow fever virus [2]; Vero, read-out: ED50) of 20 nM, an EC50 (yellow fever virus [2]; Vero, read-out: ED50 YFV VERO) of 20 nM and an EC50 (kunjin virus [3]; Huh-7, read-out: ED50) of 30 nM. For the same compound, the EC50 (kunjin virus [3]; Huh-7, read-out: ED50 KUN HuH7) was 40 nM, the EC50 (kunjin virus [3]; Vero, read-out: ED50) was 20 nM and the EC50 (dengue virus [5]; read-out: ED50) was 20 nM. For the same compound, the EC50 (dengue virus [5]; read-out: ED50 DEN VERO) was 40 nM, the Fold enhancement (VSV) was 266 fold and the selectivity ratio [7] was 2100. The Fold enhancement (dengue virus [8]) was 10 fold, the Fold enhancement (kunjin virus [9]) was 4.5 fold and the EC50 [10] was 20 nM.

Work on `O=C(O)c1cc(-c2ccc(C3CCCCC3)cc2)nc2ccc(OC(F)(F)F)cc12` [I2K46, 2-(4-cyclohexylphenyl)-6-trifluoromethoxy-quinoline-4-carboxylic acid] yielded an EC50 (yellow fever virus [2]; Huh-7, read-out: ED50 YFV HuH7) of 5100 nM and an EC50 (kunjin virus [3]; Huh-7, read-out: ED50 KUN HuH7) of 6300 nM.

For `COc1c(-c2cc(C(=O)O)c3cc(OC(F)(F)F)ccc3n2)ccc(OCc2ccccc2)c1C` [I2K51, 2-(4-benzyloxy-2-methoxy-3-methyl-phenyl)-6-trifluoromethoxy-quinoline-4-carboxylic acid], the EC50 (yellow fever virus [2]; Vero, read-out: ED50 YFV VERO) was 1300 nM and the EC50 (dengue virus [5]; read-out: ED50 DEN VERO) was 2600 nM.

For `COc1cc(-c2ccc(Nc3ccccc3C(=O)O)c(OC)c2)ccc1Nc1ccccc1C(=O)O` [Redoxal], the EC50 ([1]; Huh-7, read-out: ED50) was 630 nM, the EC50 (yellow fever virus [2]; Huh-7, read-out: ED50) was 630 nM and the EC50 (yellow fever virus [2]; Vero, read-out: ED50) was 250 nM. The EC50 (kunjin virus [3]; Huh-7, read-out: ED50) was 520 nM, the EC50 (kunjin virus [3]; Vero, read-out: ED50) was 390 nM and the EC50 (dengue virus [5]; read-out: ED50) was 390 nM.

`Cc1nc2c(n1-c1ccc(Br)cc1)C(=O)c1ccccc1C2=O` [BNID, 1-(p-bromophenyl)-2-methyl-1H-naphth[2,3-d]imidazole-4,9-dione] gave an EC50 ([1]; Huh-7, read-out: ED50) of 640 nM, an EC50 (yellow fever virus [2]; Huh-7, read-out: ED50) of 1150 nM and an EC50 (yellow fever virus [2]; Vero, read-out: ED50) of 1250 nM. The EC50 (kunjin virus [3]; Huh-7, read-out: ED50) was 1150 nM, the EC50 (kunjin virus [3]; Vero, read-out: ED50) was 1050 nM and the Fold enhancement (yellow fever virus [4]) was 10 fold and 5 fold. The EC50 (dengue virus [5]; read-out: ED50) was 1250 nM and the Fold enhancement (kunjin virus [9]) was 6 fold.

`NC(=O)c1ncn([C@@H]2O[C@H](CO)[C@@H](O)[C@H]2O)n1` [Ribavirin] showed a selectivity ratio (yellow fever virus [6]; human) of 70, a selectivity ratio (yellow fever virus [6]; monkey) of 36 and an EC50 ([1]; Huh-7, read-out: ED50) of 250000 nM. It also gave an EC50 ([1]; MRC5, read-out: ED50) of 120000 nM, an EC50 (yellow fever virus [2]; Huh-7, read-out: ED50) of 34000 nM and an EC50 (yellow fever virus [2]; Vero, read-out: ED50) of 205000 nM. For the same compound, the EC50 (kunjin virus [3]; Huh-7, read-out: ED50) was 60000 nM, the EC50 (kunjin virus [3]; Vero, read-out: ED50) was 309000 nM and the EC50 (dengue virus [5]; read-out: ED50) was 320000 nM. The combined treatment efficacy (hepatitis C) was “up to 40%”.

For `O=C(O)c1cc(-c2ccc(Oc3ccccc3)cc2)nc2ccc(OC(F)(F)F)cc12` [I2K52, 2-(4-phenoxyphenyl)-6-trifluoromethoxy-quinoline-4-carboxylic acid], the EC50 (yellow fever virus [2]; Huh-7, read-out: ED50 YFV HuH7) was 11300 nM and the EC50 (kunjin virus [3]; Huh-7, read-out: ED50 KUN HuH7) was 9600 nM.

For `Cc1c(-c2ccc(-c3ccccc3)cc2)nc2ccc(OC(F)(F)F)cc2c1C(=O)O` [I2K55, 2-(4-biphenylyl)-3-methyl-6-trifluoromethoxy-quinoline-4-carboxylic acid], the EC50 (yellow fever virus [2]; Huh-7, read-out: ED50 YFV HuH7) was 6100 nM, the EC50 (yellow fever virus [2]; Vero, read-out: ED50 YFV VERO) was 11800 nM and the EC50 (kunjin virus [3]; Huh-7, read-out: ED50 KUN HuH7) was 5800 nM. It also gave an EC50 (dengue virus [5]; read-out: ED50 DEN VERO) of 11800 nM.
